Reference: PubChem BioAssay (NCI)
Where “and” joins values, the source holds several entries; their conditions need not be identical. Equal values may be shown once.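 Each compound was tested at five concentrations against cells in 96-well plates for 48 hours. GI50 marks 50% less growth. Definition used: TGI = concentration required for complete inhibition of growth.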

What was measured:
Experiment in all cases: NCI tumour cell line growth inhibition, 48 h
[1] = test system: OVCAR-4 ovarian
[2] = test system: HOP-92 NSCLC
[3] = test system: CCRF-CEM leukemia
[4] = test system: IGROV1 ovarian
[5] = test system: NCI-H226 lung
[6] = test system: PC-3 prostate
[7] = test system: OVCAR-8 ovarian
[8] = test system: M14 melanoma
[9] = test system: MDA-MB-435
[10] = test system: SF-295 CNS

| SMILES | GI50 [1] | TGI [1] | GI50 [2] | TGI [2] | GI50 [3] | TGI [3] | GI50 [4] | TGI [4] | GI50 [5] | TGI [5] | GI50 [6] | TGI [6] | GI50 [7] | TGI [7] | GI50 [8] | TGI [8] | GI50 [9] | TGI [9] | TGI [10] | GI50 [10] |
| --- | --- | --- | --- | --- | --- | --- | --- | --- | --- | --- | --- | --- | --- | --- | --- | --- | --- | --- | --- | --- |
| NC1=NCCN1CC(=O)O | > 10000 µM | > 10000 µM | > 10000 µM | > 10000 µM | > 10000 µM | > 10000 µM | > 10000 µM | > 10000 µM | > 10000 µM | > 10000 µM | > 10000 µM | > 10000 µM | > 10000 µM | > 10000 µM | > 10000 µM | > 10000 µM | > 10000 µM | > 10000 µM | > 10000 µM |  |
| O=S(=O)(Nc1cc(Cl)ccc1Cl)c1ccc(-c2cnc(C3CC3)o2)cc1 | 11.8 µM | > 100 µM | 1.21 µM | 8.42 µM | 0.592 µM | > 100 µM | 0.673 µM | > 100 µM | 4.55 µM | 38.6 µM | 0.563 µM | 17 µM | 3.95 µM | > 100 µM | 0.547 µM | 10.5 µM | 0.346 µM | 1.49 µM | 10.3 µM | 406 nM |
| CC[C@@]1(O)C(=O)OCc2c1cc1n(c2=O)Cc2c-1nc1cc3c(cc1c2C)OCO3 | 0.0244 µM and 0.0174 µM | > 100 µM |  | 0.0782 µM | < 0.0001 µM |  | 0.0351 µM |  | < 0.0001 µM | 0.0195 µM | 0.0254 µM | > 100 µM | < 0.0001 µM |  | < 0.0001 µM | 1.01 µM | 0.0016 µM |  |  | < 0.1 nM |
| CCS(=O)(=O)Nc1cccc(Nc2c3cccc(C)c3nc3c(C)cccc23)c1OC | 9.78 µM | > 75.8 µM | 0.399 µM | 7.4 µM | 0.264 µM | > 100 µM | 1.8 µM | > 70.2 µM | 0.627 µM | 4.76 µM | 1.67 µM | 19.2 µM | 1.19 µM | 74.5 µM | 0.435 µM | > 100 µM | 4.05 µM | > 86 µM | 22.1 µM | 381 nM |
| S=C(N/N=C(/c1ccccc1)c1ccccn1)N1CCCCCC1 |  | 2.04 µM |  | 1.97 µM | < 0.001 µM |  | < 0.001 µM | 1.06 µM and 1.98 µM | 0.02 µM | 1.19 µM and 1.58 µM | < 0.001 µM | 1.37 µM and 1.52 µM | 0.00375 µM | 1.65 µM and 1.33 µM |  | 1.47 µM and 0.26 µM | 0.043 µM | 1.59 µM and 1.58 µM | 2.08 µM and 1.51 µM | 564 nM |
| COC(=O)/C=C/c1cn(C(C)=O)c2ccc(Br)cc12 | 31.4 µM | > 100 µM | 14.7 µM | > 60.7 µM | 1.44 µM | > 100 µM | 19.1 µM | > 100 µM | 20.9 µM | > 93.4 µM | 28 µM | > 100 µM | 38.5 µM | > 100 µM | 28.5 µM | > 100 µM | 29 µM | > 100 µM | 40.1 µM | 16100 nM |
| COc1ccc(-c2c(-c3cc(OC)c(OC)c(OC)c3)noc2N)cc1 | 0.0249 µM | 57.5 µM | < 0.01 µM | > 100 µM | 0.0307 µM | > 100 µM | 0.0202 µM | 40.1 µM | 0.0244 µM | > 100 µM | < 0.0119 µM | > 100 µM | 0.0173 µM | 15.8 µM | < 0.01 µM | > 100 µM | < 0.01 µM |  | > 100 µM | < 10 nM |
| COc1cc(-c2ncn(/C=C\C(=O)OC(C)C)n2)cc(C(F)(F)F)c1 | 0.0684 µM and 0.0407 µM | 4.18 µM and 9.49 µM | 0.303 µM and 0.103 µM | 4.96 µM and 5.68 µM | 0.0362 µM and 0.0446 µM | 36.1 µM and 12.5 µM | 0.503 µM and 0.171 µM | 15.8 µM and 15.6 µM | 0.0164 µM and 0.031 µM | 0.64 µM and 1.66 µM | 0.106 µM and 0.0584 µM | 14.9 µM and 12.8 µM | 0.045 µM and 0.031 µM | 11.4 µM and 1.41 µM | 0.228 µM and 0.35 µM | 4.74 µM and 14.5 µM | 0.0437 µM and 0.0485 µM | 0.702 µM and 0.457 µM | 14.1 µM and 11.8 µM | 89.1 nM and 196 nM |
| COc1ccc(-c2cc(-c3ccc(O)cc3)nc3n[nH]c(N)c23)cc1 | 43.3 µM | > 100 µM | 11.9 µM | 28.7 µM | 21.6 µM | 81.8 µM | 17 µM | 52.2 µM | 17.9 µM | 49.5 µM | 29.1 µM | > 100 µM | 26.1 µM | 91.6 µM | 21.3 µM | 43 µM | 22 µM | 47.4 µM | 51.9 µM | 18500 nM |
| N#CS.N=C=S.N=C=S.[Cu+2].[NH2-].[NH2-].[NH2-].[NH2-].c1ccc2ncccc2c1 | 20.6 µM | 43.4 µM | > 100 µM | > 100 µM | 24.3 µM | 57.5 µM | 55.7 µM | > 100 µM | 28.3 µM | 49.4 µM | > 100 µM | > 100 µM | > 100 µM | > 100 µM | > 100 µM | > 100 µM | 19.4 µM | 41.3 µM | 37 µM | 17700 nM |
| CCCCCCCCCCCCCCCCOP(=O)(O)OP(=O)(O)OCC1OC(n2ccc(N)nc2=O)C(O)C1O (centres undefined) |  | > 100 µM |  | > 100 µM |  | > 100 µM |  | > 100 µM |  | > 100 µM |  | > 100 µM |  | > 100 µM |  | > 100 µM and 98.4 µM |  | > 100 µM | > 100 µM | > 100000 nM and 46000 nM |
| O=C(Nc1nc2ccc(F)cc2s1)c1cccnc1Nc1ccc(Cl)cc1 | 2.99 µM | > 100 µM | 0.575 µM | 3.34 µM | 1.54 µM | > 100 µM | 2.6 µM | > 34.1 µM | 2.97 µM | > 100 µM | 1.93 µM | > 27.4 µM | 6.26 µM | > 100 µM | 2.94 µM | > 100 µM | 3.11 µM | > 100 µM | 7.83 µM | 1980 nM |
| O=c1c2c3c(sc2nc(N/N=C/c2ccc(Br)cc2)n1Cc1ccccc1)CCCC3 | 9.67 µM | > 100 µM | 8.63 µM | > 100 µM | 7.23 µM | > 100 µM | 58.7 µM | > 100 µM | 37.4 µM | > 100 µM | 6.64 µM | > 100 µM | 47 µM | > 100 µM | 9.15 µM | > 100 µM | 44.1 µM | > 100 µM | > 100 µM | 5750 nM |
| COc1cnc2c(c1)C(=O)c1c-2n(CCCNC(C)C)c(=O)c2cc(F)ccc12 | 0.301 µM | 1.7 µM | 0.284 µM | 2.54 µM | 0.111 µM | 10.7 µM | 0.206 µM | 1.92 µM | 0.146 µM | 0.325 µM | 0.281 µM | 2.55 µM | 0.141 µM | 1.28 µM | 0.23 µM | 1.3 µM | 0.309 µM | 1.48 µM | 0.549 µM | 94.3 nM |
| CC1=C([Te]c2ccc(O)cc2)C(=O)c2ccccc2C1=O | 1.95 µM | 4.38 µM | 1.09 µM | 2.75 µM | 0.806 µM | 4.38 µM | 1.08 µM | 4.91 µM | 0.33 µM | 1.57 µM | 1.53 µM | 5.11 µM | 2.4 µM | 8.34 µM | 1.88 µM | 5.05 µM | 2.35 µM | 5.79 µM | 1.98 µM | 348 nM |
| COc1ccc(CNc2nc3cc(N)cc(N)c3nc2-c2ccccc2)cc1 | 8.12 µM | 21.3 µM | 13 µM | 37.2 µM | 3.36 µM | 65.3 µM | 12.9 µM | 27.1 µM | 20.2 µM | 70.5 µM | 10.3 µM | 27.3 µM | 14.8 µM | 39.5 µM | 18.1 µM | 32.2 µM | 10.1 µM | 21.7 µM | 32.4 µM | 17800 nM |
| CCOC(=O)[C@@H](C)C[C@H](Cc1ccccc1)NC(=O)c1csc([C@@H](C[C@H](C(C)C)N(C)C(=O)[C@H](CC)NC(=O)[C@H]2CCCCN2C)OC(C)=O)n1 | 0.00397 µM | > 16.7 µM | < 0.00167 µM | 0.236 µM | 0.00397 µM | > 16.7 µM | 0.00193 µM | > 16.7 µM | 0.00335 µM | 0.102 µM | < 0.00167 µM | > 16.7 µM | 0.00434 µM | > 16.7 µM | 0.00171 µM | 0.00762 µM | < 0.00167 µM | 0.00169 µM | > 4.03 µM | < 1.67 nM |
